Common to all, as to experiment: NCI anticancer screen, dose series, 48 h
In assay [1] the test system is A498 renal.
The subject of assay [2] is BT-549 breast.
In assay [3] the test system is DU-145 prostate.
In assay [4] the test system is HCC-2998 colon.
In assay [5] the test system is HT29 colon.
Assay [6] has as its system KM12 colon.
For assay [7], the system named is MDA-MB-435.
For assay [8], the system named is SF-539 CNS.
Assay [9] deals with SW-620 colon.
The test system of assay [10] is EKVX NSCLC.

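Interpolation was linear, between the two tested concentrations surrounding the appropriate level; five concentrations were tested over 48 hours in 96-well plates. GI50 is the concentration that inhibits growth by half. Definition used: TGI = concentration required for complete inhibition of growth.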 Some results are limits rather than exact numbers.

Regarding `COc1ccc(C(=O)/C=C/c2ccc(/C=C/c3cc(OC)c(OC)c(OC)c3)cc2)cc1`, the GI50 is 18.6 µM in assay [1]; 3.36 µM in assay [2]; 10.2 µM in assay [3]; 38.5 µM in assay [4]; 4.17 µM in assay [5]; 3.75 µM in [6]. Besides, the figures for the GI50 in [7], in [8] and in assay [9] were 4.28 µM, 12.2 µM and 4.5 µM, respectively. The TGI in assay [1] was more than 100 µM; in assay [2] it was 16.8 µM; in assay [3], more than 100 µM; in assay [4] it was more than 100 µM; in assay [5] it was more than 100 µM; in [6] it was 83.9 µM. Moreover, the TGI is 47.7 µM in [7], 78.3 µM in assay [8] and more than 100 µM in assay [9].

Regarding `COc1ccc(-c2ccc(/C=N/n3c(COc4ccc(Cl)cc4Cl)n[nH]c3=S)o2)c([N+](=O)[O-])c1`, the GI50 is 16.8 µM in assay [1]; 21.9 µM in assay [2]; 38.3 µM in [3]; 48.9 µM in assay [10]; 34.2 µM in assay [5]; 15.9 µM in assay [6]. The GI50 is 18.1 µM in assay [7], 25.7 µM in [8] and 30.7 µM in assay [9]. Moreover, the TGI in assay [1] is 41.5 µM; in [2] it was 50.2 µM; in assay [3] it was more than 100 µM; in assay [10], more than 100 µM; in assay [5], 79.6 µM; in assay [6], 33 µM. In addition, the results for the TGI in assay [7], in assay [8] and in assay [9] were 38 µM, 49.7 µM and 97.6 µM, respectively.

Take `CNC(=O)n1ccc2cc(Oc3ccnc(NC(=O)c4ccc(C5CCN(CCO)CC5)cc4)c3)c(OCCOC)cc21`: the GI50 was 2.35 µM in assay [2]; 11.2 µM in [3]; 14.7 µM in [10]; 8.57 µM in [4]; 0.801 µM in [5]; 10.4 µM in assay [6]. Moreover, the figures for the GI50 in [7], in assay [8] and in assay [9] were 3.2 µM, 1.12 µM and 6.3 µM, respectively. The TGI in assay [2] is 14.2 µM; in assay [3], 23.2 µM; in [10] it was 29.3 µM; in [4], 21.3 µM; in assay [5], 11.1 µM; in [6], 24.5 µM. Besides, the TGI is 11.8 µM in assay [7], 2.56 µM in [8] and 18.9 µM in [9].

Regarding `Cc1ccc2c(ccc3c[n+]4c5ccccc5ccc4n32)c1`, the GI50 is 0.437 µM in assay [1]; 0.434 µM in assay [2]; 1.32 µM in assay [3]; 0.484 µM in assay [10]; 1.27 µM in assay [4]; 2.08 µM in [5]. Further, the GI50 in assay [6] was 0.34 µM; in assay [7], 1.13 µM; in assay [9], 0.508 µM. For the same compound, the TGI in assay [1] worked out at 5.78 µM; in assay [2] it was 2.41 µM; in [3], 12.3 µM; in [10], 25.4 µM; in [4], 2.98 µM; in assay [5], 8.77 µM. In addition, the results for the TGI in assay [6], in assay [7] and in assay [9] were 2.09 µM, 2.55 µM and 10.7 µM, respectively.

Take `CN1CCN(CCc2cccc(C(=O)c3cnn(-c4ccc(F)cc4)c3N)c2)CC1`: the GI50 in [1], in assay [2], in assay [3], in [4], in assay [5] and in assay [6] was more than 25 µM each time. The GI50 in [7], in assay [8] and in [9] was more than 25 µM throughout. Besides, the TGI in assay [1], in assay [2], in [3], in assay [4], in [5] and in [6] was more than 25 µM throughout. For the same compound, the TGI in [7], in [8] and in assay [9] was more than 25 µM each time.

For the compound `Cc1[c-]onc1C.Cc1[c-]onc1C.[Ag].[Ag].[NH-]S(=O)(=O)c1ccc(N=Nc2cc(N=Nc3ccc(S([NH-])(=O)=O)cc3)c3c(NC(=O)C(Cl)Cl)cccc3c2OC(=O)C(Cl)Cl)cc1`, the GI50 is 13 µM in assay [1]; 7.57 µM in assay [2]; 7.38 µM in assay [3]; 10.9 µM in assay [4]; 9.29 µM in assay [5]; 7.44 µM in assay [6]. For the same compound, the GI50 was 7.87 µM in assay [7], 14.2 µM in [8] and 3.54 µM in assay [9]. The TGI in assay [1] came out at 44.6 µM; in assay [2], 14.8 µM; in assay [3] it was 14.8 µM; in assay [4] it was 26 µM; in assay [5] it was 21.7 µM; in [6], 18.1 µM. In addition, the figures for the TGI in [7], in assay [8] and in [9] were 16.3 µM, more than 50 µM and 12.8 µM, respectively.

In the case of `Nc1cc2cccc[n+]2c2cc(Cl)ccc12`, the GI50 in assay [2] is 7.24 µM; in assay [3], 30.7 µM; in assay [10], 34 µM; in assay [4], 16.8 µM; in assay [5] it was 37.4 µM; in assay [6], 7.89 µM. For the same compound, the GI50 in assay [7] was 15.7 µM; in assay [8] it was 14.6 µM; in assay [9] it was 26.2 µM. Further, the TGI was 25.2 µM in assay [2]; 37.7 µM in assay [4]; 53.2 µM in assay [6]; 48.7 µM in [7]; 83.2 µM in assay [8].

Regarding `CC1(C)SC2C(NC(=O)C(N)c3ccccc3)C(=O)N2C1C(=O)O` (stereo unspecified), the TGI in assay [2], in assay [3], in [10], in assay [4], in assay [5] and in [6] was more than 100 µM each time. The TGI in assay [7], in assay [8] and in [9] was more than 100 µM in each case.

Source of the values: PubChem BioAssay (NCI).
